Patent publication US20250144067A1, “PERSONALIZED STARVATION THERAPY FOR CANCER” (Faeth Therapeutics, Inc., priority 2021, published 2025)

Key:
[1] = system: NCI-H292 lung cancer cells; experiment: FDA drug screening, complete media vs cholesterol-free media without statin (TABLE 1); format: cell-based, human
[2] = system: NCI-H292 lung cancer cells; experiment: FDA drug screening, complete media vs cholesterol-free media with simvastatin (TABLE 2); format: cell-based, human; conditions: for Cholesterol-free media + simvastatin (0.04 μM) / Complete Media: NCI-H292 cells
[3] = Complete minus Cholesterol-free, greater than 0 enhanced anti-cancer activity, about 0 neutral, below 0 antagonists
[4] = NCI-H292 cells in cholesterol-free media without statin
[5] = NCI-H292 cells in complete media
[6] = drug in cholesterol-free media with simvastatin 0.04 μM
[7] = complete media vs cholesterol-free media + simvastatin (0.04 μM), >0 enhanced anti-cancer activity, about 0 neutral, <0 antagonist
[8] = NCI-H292 cells, cholesterol-free media without statin, FDA drug library screen
[9] = NCI-H292 cells, complete media, FDA drug library screen
[10] = complete vs cholesterol-free media, […]
[11] = complete media vs cholesterol-free media + simvastatin (0.04 μM), […]
[12] = FDA drug library screen, cholesterol-free media with simvastatin 0.04 μM
[13] = FDA drug library screen, complete media
[14] = Complete minus Cholesterol-free, […]
[15] = FDA library drug in cholesterol-free media with simvastatin 0.04 μM
[16] = FDA library drug in complete media
[17] = NCI-H292 cells, cholesterol-free media without statin
[18] = cholesterol-free media with simvastatin 0.04 μM, FDA drug library screen (TABLE 2)
[19] = complete media, FDA drug library screen (TABLE 2)
[20] = NCI-H292 cells, FDA drug library screen, cholesterol-free media without statin
[21] = NCI-H292 cells, FDA drug library screen, complete media
[22] = Complete minus Cholesterol-free, >0 enhanced anti-cancer activity, about 0 neutral, <0 antagonist
[23] = complete media minus cholesterol-free media + simvastatin (0.04 μM), >0 enhanced anti-cancer activity, about 0 neutral, <0 antagonist

`C=C1CC[C@H](O)C/C1=C/C=C1\CCC[C@]2(C)[C@@H]([C@H](C)CCCC(C)(C)O)CC[C@@H]12` [Calcifediol] was tested, and the Difference [1, 3] was −0.53, the Cholesterol-free [1, 4] was 1.425 and the Complete [1, 5] was 0.8976. For the same compound, the “Cholesterol-free media + simvastatin (0.04 μM)” value [2, 6] was 1.216, the “Complete Media” value ([2]; drug in complete media) was 1.052 and the Difference [2, 7] was −0.16.

With `O=S(=O)([O-])c1cc(O)ccc1O.O=S(=O)([O-])c1cc(O)ccc1O.[Ca+2]` [Calcium dobesilate] the Cholesterol-free [1, 8] was 1.325, the Complete [1, 9] was 1.418 and the Difference [1, 10] was 0.09. For the same compound, the “Cholesterol-free media + simvastatin (0.04 μM)” value [2, 6] was 1.427, the “Complete Media” value ([2]; drug in complete media) was 1.218 and the Difference [2, 11] was −0.21.

Compound `CC12CCC(CC1=O)C2(C)C` (stereo not drawn) [Camphor] has a Difference [1, 3] of −0.48, a Cholesterol-free [1, 4] of 1.372 and a Complete [1, 5] of 0.8909. For the same compound, the “Cholesterol-free media + simvastatin (0.04 μM)” value [2, 12] was 1.13, the “Complete Media” value [2, 13] was 0.9969 and the Difference [2, 7] was −0.13.

`CC[C@@]1(O)C(=O)OCc2c1cc1n(c2=O)Cc2cc3ccccc3nc2-1` [Camptothecin] gave a Difference [1, 14] of −0.01, a Cholesterol-free [1, 8] of 0.0145 and a Complete [1, 9] of 0.005875. For the same compound, the “Cholesterol-free media + simvastatin (0.04 μM)” value [2, 12] was −0.11, the “Complete Media” value [2, 13] was 0.07415 and the Difference ([2]; complete media minus cholesterol-free media + simvastatin, […]) was 0.18.

For `Cc1ccc([C@@H]2O[C@H](CO)[C@@H](O)[C@H](O)[C@H]2O)cc1Cc1ccc(-c2ccc(F)cc2)s1.O` [Canagliflozin (hemihydrate)], the Difference [1, 14] was −0.51, the Cholesterol-free [1, 4] was 1.347 and the Complete [1, 5] was 0.8359. For the same compound, the “Cholesterol-free media + simvastatin (0.04 μM)” value [2, 15] was 1.34, the “Complete Media” value [2, 16] was 0.8924 and the Difference [2, 11] was −0.45.

Work on `Cc1ccc([C@@H]2O[C@H](CO)[C@@H](O)[C@H](O)[C@H]2O)cc1Cc1ccc(-c2ccc(F)cc2)s1` [Canagliflozin] yielded a Cholesterol-free [1, 17] of 1.159, a Complete ([1]; NCI-H292 cells, complete media) of 0.8206 and a Difference [1, 10] of −0.34. The “Cholesterol-free media + simvastatin (0.04 μM)” value [2, 18] was 1.109, the “Complete Media” value [2, 19] was 1.104 and the Difference ([2]; complete media minus cholesterol-free media + simvastatin (0.04 μM), […]) was −0.01.

`CCOc1nc2cccc(C(=O)OC(C)OC(=O)OC3CCCCC3)c2n1Cc1ccc(-c2ccccc2-c2nnn[nH]2)cc1` (stereo not drawn) [Candesartan Cilexetil] showed a Difference ([1]; Complete minus Cholesterol-free, greater than 0 enhanced anti-cancer activity, about 0 neutral, below 0 antagonist) of −0.16, a Cholesterol-free [1, 20] of 1.093 and a Complete [1, 21] of 0.9304. The “Cholesterol-free media + simvastatin (0.04 μM)” value [2, 6] was 1.18, the “Complete Media” value ([2]; drug in complete media) was 0.9738 and the Difference [2, 7] was −0.21.

`CCOc1nc2cccc(C(=O)O)c2n1Cc1ccc(-c2ccccc2-c2nnn[nH]2)cc1` [Candesartan] showed a Difference [1, 22] of 0.02, a Cholesterol-free [1, 8] of 0.9494 and a Complete [1, 9] of 0.9741. The “Cholesterol-free media + simvastatin (0.04 μM)” value [2, 6] was 1.101, the “Complete Media” value ([2]; drug in complete media) was 0.8684 and the Difference [2, 7] was −0.23.

`CSCCNc1nc(SCCC(F)(F)F)nc2c1ncn2[C@@H]1O[C@H](COP(=O)([O-])OP(=O)([O-])C(Cl)(Cl)P(=O)([O-])[O-])[C@@H](O)[C@H]1O.[Na+].[Na+].[Na+].[Na+]` [Cangrelor (tetrasodium)] was tested, and the Difference [1, 14] was −0.14, the Cholesterol-free [1, 20] was 1.189 and the Complete [1, 21] was 1.05. The “Cholesterol-free media + simvastatin (0.04 μM)” value [2, 12] was 1.209, the “Complete Media” value [2, 13] was 1.098 and the Difference [2, 11] was −0.11.

Compound `C[C@]12CCC(=O)C=C1C=C[C@@H]1[C@@H]2CC[C@@]2(C)[C@H]1CC[C@@]21CCC(=O)O1` [Canrenone] has a Difference [1, 22] of −0.20, a Cholesterol-free [1, 17] of 1.047 and a Complete ([1]; NCI-H292 cells, complete media) of 0.8458. For the same compound, the “Cholesterol-free media + simvastatin (0.04 μM)” value [2, 12] was 1.098, the “Complete Media” value [2, 13] was 1.452 and the Difference ([2]; complete media minus cholesterol-free media + simvastatin, >0 enhanced anti-cancer activity, about 0 neutral, <0 antagonist) was 0.35.

`CCCCCOC(=O)Nc1nc(=O)n([C@@H]2O[C@H](C)[C@@H](O)[C@H]2O)cc1F` [Capecitabine] gave a Difference [1, 22] of −0.20, a Cholesterol-free [1, 17] of 1.138 and a Complete ([1]; NCI-H292 cells, complete media) of 0.9364. The “Cholesterol-free media + simvastatin (0.04 μM)” value [2, 15] was 1.236, the “Complete Media” value [2, 16] was 0.648 and the Difference [2, 7] was −0.59.

Work on `COc1cc(CNC(=O)CCCC/C=C/C(C)C)ccc1O` [Capsaicin] yielded a Difference [1, 22] of −0.28, a Cholesterol-free [1, 17] of 1.197 and a Complete ([1]; NCI-H292 cells, complete media) of 0.9142. For the same compound, the “Cholesterol-free media + simvastatin (0.04 μM)” value [2, 18] was 1.403, the “Complete Media” value [2, 19] was 1.38 and the Difference [2, 23] was −0.02.

For `C[C@H](CS)C(=O)N1CCC[C@H]1C(=O)O` [Captopril], the Difference [1, 22] was −0.19, the Cholesterol-free [1, 17] was 0.897 and the Complete ([1]; NCI-H292 cells, complete media) was 0.704. The “Cholesterol-free media + simvastatin (0.04 μM)” value [2, 18] was 0.8354, the “Complete Media” value [2, 19] was 0.832 and the Difference [2, 23] was 0.00.
